Bounds are passed on as bounds.

Broadly, the inhibition is the relative decrease from the control value, in per cent.

Format in all cases: biochemical
One test deals with T1, Flt3 kinase (Homo sapiens, UniProt P36888).
T1 construct: purchased Millipore (KinaseProfiler Service); also Reaction Biology Corp. (Kinase HotSpot)
T1 sequence (P36888 27-993): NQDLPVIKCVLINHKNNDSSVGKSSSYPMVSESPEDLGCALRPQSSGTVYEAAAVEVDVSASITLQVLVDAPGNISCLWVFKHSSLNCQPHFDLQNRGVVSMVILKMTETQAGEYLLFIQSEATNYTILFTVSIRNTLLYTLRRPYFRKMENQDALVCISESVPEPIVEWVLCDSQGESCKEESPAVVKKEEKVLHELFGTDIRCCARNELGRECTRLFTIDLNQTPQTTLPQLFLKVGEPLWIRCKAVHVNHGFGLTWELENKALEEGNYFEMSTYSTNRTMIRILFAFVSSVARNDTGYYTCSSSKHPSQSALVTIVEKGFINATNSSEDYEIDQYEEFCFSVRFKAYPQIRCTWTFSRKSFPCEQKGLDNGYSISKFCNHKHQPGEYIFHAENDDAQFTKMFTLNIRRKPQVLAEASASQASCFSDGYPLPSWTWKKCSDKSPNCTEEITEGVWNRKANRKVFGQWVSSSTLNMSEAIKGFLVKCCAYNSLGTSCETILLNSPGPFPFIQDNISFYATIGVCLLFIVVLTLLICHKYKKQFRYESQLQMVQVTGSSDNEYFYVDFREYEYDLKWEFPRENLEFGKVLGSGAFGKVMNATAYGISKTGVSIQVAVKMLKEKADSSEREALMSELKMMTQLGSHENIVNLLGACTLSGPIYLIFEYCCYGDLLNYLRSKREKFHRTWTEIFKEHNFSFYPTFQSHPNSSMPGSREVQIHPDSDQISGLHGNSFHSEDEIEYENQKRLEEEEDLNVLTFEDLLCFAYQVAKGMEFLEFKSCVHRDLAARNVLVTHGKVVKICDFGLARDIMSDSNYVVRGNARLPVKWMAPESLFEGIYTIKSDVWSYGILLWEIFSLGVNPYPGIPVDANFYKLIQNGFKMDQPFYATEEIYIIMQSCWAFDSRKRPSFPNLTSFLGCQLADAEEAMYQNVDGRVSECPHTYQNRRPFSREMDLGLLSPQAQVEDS
Description: Flt3 kinase assay (KinaseProfiler / Kinase Hotspot). As to the method:
(§1) This example illustrated c-Src kinase, Aurora-A kinase, Flt3 kinase, Ret kinase and TrkA Kinase Assays of selected Compounds from this invention (referred to Daniele Fancelli et al, J. Med. Chem., 2006, 49 (24), pp 7247-7251). The KinaseProfiler™ Service Assay Protocols (Millipore) were used to test the kinase inhibiting activity of novel compounds from this invention. To do this, the buffer composition was as: 20 mM MOPS, 1 mM EDTA, 0.01% Brij-35, 5% Glycerol, 0.1% p-mercaptoethanol, 1 mg/mL BSA. Test compounds were initially dissolved in DMSO at the desired concentration, then serially diluted to the kinase assay buffer. In a final reaction volume of […], Aurora-A(h) (5-10 mU) is incubated with 8 mM MOPS pH 7.0, 0.2 mM EDTA, […] LRRASLG (Kemptide), 10 mM MgAcetate and [y33P-ATP]. The reaction was initiated by the addition of the MgATP mix. After incubation for 40 minute at room temperature, the reaction was stopped by addition of […] of a 3% phosphoric acid solution. […] of the reaction was then spotted onto a P30 filtermat and washed three times for 5 minutes in 50 mM phosphoric acid and once in methanol prior to drying and scintillation counting. Wells containing substrate but no kinase and wells containing a phosphopeptide control were used to set 0% and 100% phosphorylation value, repectively.
(§2) Also Kinase Hotspot SM kinase assay was used to test the compounds for IC50 or % inhibitions (Reaction Biology Corp.). Inhibitor IC50 values were determined by titration of compound at the optimal kinase concentration (Kinase EC50).

A further test has as its target T2, c-Src kinase (Homo sapiens, UniProt P12931).
T2 construct: purchased Millipore (KinaseProfiler Service); also Reaction Biology Corp. (Kinase HotSpot)
Description: c-Src kinase assay (KinaseProfiler / Kinase Hotspot). To be noted: read-out: % Inhibition cSrc. How it is done:
as §1, §2

The target in a further test is T3, Ret kinase (Homo sapiens, UniProt P07949).
T3 construct: purchased Millipore (KinaseProfiler Service); also Reaction Biology Corp. (Kinase HotSpot)
T3 sequence (P07949 29-1114): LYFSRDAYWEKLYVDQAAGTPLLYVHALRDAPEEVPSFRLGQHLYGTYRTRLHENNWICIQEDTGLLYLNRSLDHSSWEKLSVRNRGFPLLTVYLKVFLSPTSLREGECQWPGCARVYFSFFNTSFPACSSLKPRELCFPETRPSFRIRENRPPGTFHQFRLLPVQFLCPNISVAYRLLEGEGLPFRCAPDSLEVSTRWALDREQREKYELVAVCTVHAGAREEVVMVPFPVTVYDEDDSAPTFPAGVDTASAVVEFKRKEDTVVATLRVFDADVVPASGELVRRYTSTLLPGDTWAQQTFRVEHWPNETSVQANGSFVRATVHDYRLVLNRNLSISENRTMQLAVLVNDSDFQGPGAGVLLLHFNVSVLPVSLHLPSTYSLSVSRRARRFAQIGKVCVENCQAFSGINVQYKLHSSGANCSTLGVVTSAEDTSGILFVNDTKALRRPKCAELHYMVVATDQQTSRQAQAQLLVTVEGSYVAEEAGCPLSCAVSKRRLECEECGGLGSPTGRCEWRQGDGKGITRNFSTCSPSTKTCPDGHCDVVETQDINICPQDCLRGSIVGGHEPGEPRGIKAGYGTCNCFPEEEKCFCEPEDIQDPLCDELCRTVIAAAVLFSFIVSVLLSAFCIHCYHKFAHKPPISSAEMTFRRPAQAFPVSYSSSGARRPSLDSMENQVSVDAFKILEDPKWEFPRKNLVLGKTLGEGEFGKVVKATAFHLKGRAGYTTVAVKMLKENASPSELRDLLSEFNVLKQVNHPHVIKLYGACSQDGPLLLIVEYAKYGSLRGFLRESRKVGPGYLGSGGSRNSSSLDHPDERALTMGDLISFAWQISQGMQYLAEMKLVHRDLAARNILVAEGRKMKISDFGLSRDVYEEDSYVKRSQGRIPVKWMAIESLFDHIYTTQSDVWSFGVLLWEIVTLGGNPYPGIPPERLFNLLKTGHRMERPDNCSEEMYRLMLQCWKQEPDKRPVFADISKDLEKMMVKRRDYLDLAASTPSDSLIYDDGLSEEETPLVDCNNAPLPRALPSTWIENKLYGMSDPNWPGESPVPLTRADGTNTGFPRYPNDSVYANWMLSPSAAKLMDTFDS
Description: Ret kinase assay (KinaseProfiler / Kinase Hotspot). How it is done:
as §1, §2

Another test concerns the target T4, Aurora-A kinase (Homo sapiens, UniProt O14965).
T4 construct: purchased Millipore (KinaseProfiler Service); also Reaction Biology Corp. (Kinase HotSpot)
T4 sequence (O14965 1-403): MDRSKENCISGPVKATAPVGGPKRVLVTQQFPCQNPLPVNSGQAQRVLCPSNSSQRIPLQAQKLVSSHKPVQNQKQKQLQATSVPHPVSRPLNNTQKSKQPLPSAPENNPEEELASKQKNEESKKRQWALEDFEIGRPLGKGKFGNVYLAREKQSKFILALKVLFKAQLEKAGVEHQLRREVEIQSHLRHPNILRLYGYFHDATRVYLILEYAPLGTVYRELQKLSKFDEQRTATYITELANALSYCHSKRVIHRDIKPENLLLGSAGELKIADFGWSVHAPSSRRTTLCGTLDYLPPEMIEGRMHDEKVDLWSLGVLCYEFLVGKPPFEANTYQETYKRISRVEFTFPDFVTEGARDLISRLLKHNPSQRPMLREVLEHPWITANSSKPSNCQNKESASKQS
Description: Aurora-A kinase assay (KinaseProfiler / Kinase Hotspot). Conditions: read-out: % Inhibition Auroro-A. How it is done: as §1, §2

A further test deals with T5, TrkA Kinase (Homo sapiens, UniProt P04629).
T5 construct: purchased Millipore (KinaseProfiler Service); also Reaction Biology Corp. (Kinase HotSpot)
T5 sequence (P04629 33-796): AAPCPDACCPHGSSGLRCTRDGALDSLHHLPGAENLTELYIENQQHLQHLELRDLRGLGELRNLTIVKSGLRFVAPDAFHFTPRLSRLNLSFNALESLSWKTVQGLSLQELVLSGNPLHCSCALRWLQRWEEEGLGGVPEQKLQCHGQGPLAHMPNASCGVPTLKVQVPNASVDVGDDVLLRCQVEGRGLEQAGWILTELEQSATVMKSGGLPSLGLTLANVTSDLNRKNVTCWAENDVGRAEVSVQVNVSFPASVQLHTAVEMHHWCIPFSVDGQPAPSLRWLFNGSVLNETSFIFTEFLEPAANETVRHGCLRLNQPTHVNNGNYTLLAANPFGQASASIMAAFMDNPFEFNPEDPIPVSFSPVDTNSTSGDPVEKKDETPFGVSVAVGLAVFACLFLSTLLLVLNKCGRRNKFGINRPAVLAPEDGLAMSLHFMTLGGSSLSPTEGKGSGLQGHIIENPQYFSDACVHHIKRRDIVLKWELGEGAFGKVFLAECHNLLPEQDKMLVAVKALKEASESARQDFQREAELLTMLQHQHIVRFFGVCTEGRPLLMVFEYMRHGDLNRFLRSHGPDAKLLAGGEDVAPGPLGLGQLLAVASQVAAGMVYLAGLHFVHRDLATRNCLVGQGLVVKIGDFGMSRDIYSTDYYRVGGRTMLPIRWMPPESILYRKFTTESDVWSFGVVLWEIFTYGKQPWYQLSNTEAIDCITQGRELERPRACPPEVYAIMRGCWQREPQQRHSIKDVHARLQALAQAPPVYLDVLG
Description: TrkA kinase assay (KinaseProfiler / Kinase Hotspot). How it is done:
as §1, §2

T2 sequence (P12931 whole entry): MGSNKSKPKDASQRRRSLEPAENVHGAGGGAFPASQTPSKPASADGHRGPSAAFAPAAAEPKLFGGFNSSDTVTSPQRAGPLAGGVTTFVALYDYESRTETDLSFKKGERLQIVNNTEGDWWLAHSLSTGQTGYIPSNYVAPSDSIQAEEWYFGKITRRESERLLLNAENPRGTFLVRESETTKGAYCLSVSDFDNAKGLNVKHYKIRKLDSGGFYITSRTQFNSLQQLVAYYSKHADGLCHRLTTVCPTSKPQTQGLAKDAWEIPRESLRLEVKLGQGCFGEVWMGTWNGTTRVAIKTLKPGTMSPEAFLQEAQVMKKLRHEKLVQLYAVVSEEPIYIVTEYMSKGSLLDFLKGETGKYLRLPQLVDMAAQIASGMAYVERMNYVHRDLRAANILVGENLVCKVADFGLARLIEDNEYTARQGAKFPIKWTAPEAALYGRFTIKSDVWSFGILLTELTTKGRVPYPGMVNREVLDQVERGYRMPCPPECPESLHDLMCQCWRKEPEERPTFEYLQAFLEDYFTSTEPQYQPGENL

Take `CN1CCN(c2nc(Nc3cc(-c4ccco4)[nH]n3)nc(Sc3ccc(NC(=O)C4CC4)cc3)n2)CC1` [Example 5]: the inhibition at 1 µM was more than 90% on Flt3 kinase; less than 50% at c-Src kinase; 50 to 90% against Ret kinase; 50 to 90% on Aurora-A kinase; more than 90% on TrkA Kinase.
Turning to `CN1CCN(c2nc(Nc3cc(-c4cccs4)[nH]n3)nc(Sc3ccc(NC(=O)C4CC4)cc3)n2)CC1` [Example 6], the inhibition at 1 µM on c-Src kinase is less than 50%; at Ret kinase, more than 90%; on Aurora-A kinase, 50 to 90%; against TrkA Kinase it was more than 90%.
As to `CCc1nc(Nc2cc(-c3ccco3)[nH]n2)nc(Sc2ccc(NC(=O)C3CC3)cc2)n1` [Example 8], the inhibition at 1 µM at c-Src kinase was less than 50%; at Ret kinase, 50 to 90%; at Aurora-A kinase it was less than 50%; on TrkA Kinase, 50 to 90%.
For `CN1CCN(c2nc(Nc3cc(-c4ccco4)[nH]n3)nc(Sc3ccccc3)n2)CC1` [Example 9], the inhibition at 1 µM at c-Src kinase was less than 50%; on Ret kinase, more than 90%; on Aurora-A kinase it was 50 to 90%; against TrkA Kinase, more than 90%.
For the molecule `CN1CCN(c2nc(Nc3cc(-c4ccco4)[nH]n3)nc(Sc3ccc(N)cc3)n2)CC1` [Example 10], the inhibition at 1 µM is less than 50% at c-Src kinase, more than 90% against Ret kinase, 50 to 90% on Aurora-A kinase and more than 90% against TrkA Kinase.
As to `CN1CCN(c2nc(Nc3ncc(-c4ccccc4)s3)nc(Sc3ccccc3)n2)CC1` [Example 14], the inhibition at 1 µM at c-Src kinase is less than 50%; at Ret kinase it was less than 50%; at Aurora-A kinase, less than 50%; at TrkA Kinase, more than 90%.
Consider `CN1CCN(c2nc(Nc3cc(-c4ccco4)[nH]n3)nc(Sc3ccc(O)cc3)n2)CC1` [Example 15], for which the inhibition at 1 µM was 50 to 90% at c-Src kinase, more than 90% on Ret kinase, 50 to 90% at Aurora-A kinase and more than 90% against TrkA Kinase.
Turning to `CN1CCN(c2nc(Nc3cc(-c4ccco4)[nH]n3)nc(Sc3ccc(Cl)cc3)n2)CC1` [Example 16], the inhibition at 1 µM on Flt3 kinase is more than 90%; at c-Src kinase, less than 50%; against Ret kinase it was 50 to 90%; at Aurora-A kinase, 50 to 90%; against TrkA Kinase, more than 90%.
Turning to `CN1CCN(c2nc(Nc3cc(-c4ccco4)[nH]n3)nc(Sc3cccc(Cl)c3)n2)CC1` [Example 17], the inhibition at 1 µM at c-Src kinase was less than 50%; at Ret kinase it was 50 to 90%; on Aurora-A kinase, 50 to 90%; against TrkA Kinase it was more than 90%.
As for `CN1CCN(c2nc(Nc3cc(-c4ccco4)[nH]n3)nc(Sc3ccccc3Cl)n2)CC1` [Example 18], the inhibition at 1 µM at c-Src kinase is less than 50%; against Ret kinase it was 50 to 90%; on Aurora-A kinase it was 50 to 90%; on TrkA Kinase it was more than 90%.
`CN1CCN(c2nc(Nc3cc(-c4ccco4)[nH]n3)nc(Sc3ccc(C(F)(F)F)cc3)n2)CC1` [Example 19]: the inhibition at 1 µM was less than 50% at c-Src kinase, 50 to 90% against Ret kinase, 50 to 90% on Aurora-A kinase and more than 90% at TrkA Kinase.
As for `CN1CCN(c2nc(Nc3ccccc3)nc(Nc3cc(-c4ccco4)[nH]n3)n2)CC1` [Example 20], the figures for the inhibition at 1 µM at c-Src kinase, at Ret kinase and at Aurora-A kinase were 50 to 90%, more than 90% and 50 to 90%, respectively.
On to `CN1CCN(c2nc(Nc3ncc(-c4cccs4)s3)nc(Sc3ccccc3)n2)CC1` [Example 21], for which the inhibition at 1 µM against Flt3 kinase, at c-Src kinase, at Ret kinase, at Aurora-A kinase and against TrkA Kinase was less than 50% throughout.
In the case of `CN1CCN(c2nc(Nc3cc(-c4ccco4)[nH]n3)nc(Sc3cc(Cl)cc(Cl)c3)n2)CC1` [Example 22], the inhibition at 1 µM on c-Src kinase is less than 50%; at Ret kinase, 50 to 90%; at Aurora-A kinase, 50 to 90%; against TrkA Kinase, more than 90%.
`CN1CCN(c2nc(Nc3cc(-c4ccco4)[nH]n3)nc(Sc3ccc(Cl)c(Cl)c3)n2)CC1` [Example 23]: the inhibition at 1 µM on c-Src kinase was less than 50%; on Ret kinase, 50 to 90%; on Aurora-A kinase, 50 to 90%.
As for `COc1ccc(Sc2nc(Nc3cc(-c4ccco4)[nH]n3)nc(N3CCN(C)CC3)n2)cc1` [Example 24], the inhibition at 1 µM was 50 to 90% on c-Src kinase, more than 90% against Ret kinase, 50 to 90% on Aurora-A kinase and more than 90% at TrkA Kinase.
In the case of `CN1CCN(c2nc(Nc3cc(-c4ccco4)[nH]n3)nc(Sc3ccc(OC(F)(F)F)cc3)n2)CC1` [Example 25], the inhibition at 1 µM is less than 50% at c-Src kinase, less than 50% against Ret kinase, less than 50% on Aurora-A kinase and more than 90% against TrkA Kinase.
For the molecule `CN1CCN(c2nc(Nc3cc(-c4ccco4)[nH]n3)nc(Oc3ccccc3)n2)CC1` [Example 26], the inhibition at 1 µM at c-Src kinase is 50 to 90%; against Ret kinase, more than 90%; at Aurora-A kinase, 50 to 90%; against TrkA Kinase, more than 90%.
For `CN1CCN(c2nc(Nc3cc(-c4ccco4)[nH]n3)nc(N(C)c3ccccc3)n2)CC1` [Example 27], the inhibition at 1 µM on c-Src kinase was 50 to 90%; against Ret kinase, more than 90%; at Aurora-A kinase, 50 to 90%; against TrkA Kinase, more than 90%.
In the case of `CN1CCN(c2nc(Nc3cc(-c4ccccc4)[nH]n3)nc(Sc3ccc(NC(=O)C4CC4)cc3)n2)CC1` [Example 28], the inhibition at 1 µM was less than 50% on c-Src kinase, more than 90% at Ret kinase, less than 50% on Aurora-A kinase and more than 90% at TrkA Kinase.
Regarding `CN1CCN(c2nc(Nc3cc(-c4ccco4)[nH]n3)nc(Sc3cccc(NC(=O)C4CC4)c3)n2)CC1` [Example 30], the inhibition at 1 µM is 50 to 90% at c-Src kinase, more than 90% against Ret kinase, less than 50% on Aurora-A kinase and more than 90% at TrkA Kinase.
As to `CN1CCN(c2nc(Nc3ncc(-c4cccs4)s3)nc(Sc3cccc(NC(=O)C4CC4)c3)n2)CC1` [Example 31], the inhibition at 1 µM at c-Src kinase, on Ret kinase, at Aurora-A kinase and against TrkA Kinase was less than 50% each time.
